According to PubChem BioAssay AID220 (DTP/NCI, 2004):
Values joined by “and” are separate entries in the source; they are usually repeats but may differ in a detail not shown here. Equal entries are not always repeated. Results filed as inconclusive are left out.

Test system: CD8F1 mice, subcutaneous mammary adenocarcinoma, T/C%
Test: NCI In Vivo Anticancer Drug Screen. Data for tumor model Mammary Adenocarcinoma CD8F1 (subcutaneous) in CD8F1
Conditions: higher = larger tumour
Outline: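 Transplantable tumors were established in mice, animals were dosed with compound or vehicle, and survival or tumor size was then measured in both groups. The treated result was divided by the control result.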

[1] = endpoint: median tumor weight change, dose: 25.0 mg/kg/injection, schedule: Q01DX001 (ip), vehicle: saline
[2] = endpoint: median tumor weight (est.), dose: 6.25 mg/kg/injection, schedule: Q07DX005 (ip), vehicle: saline with Tween-80

In the case of c1ccc(SSc2ccccn2)nc1, the T/C (endpoint: mean tumor weight, dose: 25.0 mg/kg/injection, schedule: Q07DX006 (ip), vehicle: saline) is reported as 123 % of control and the T/C (endpoint: mean tumor weight, dose: 100.0 mg/kg/injection, schedule: Q07DX006 (ip), vehicle: saline) is reported as 159 % of control.
With C=C(C)[C@H]1CN[C@H](C(=O)O)[C@H]1CC(=O)O the T/C (endpoint: median tumor weight change, dose: 3.12 mg/kg/injection, schedule: Q01DX001 (ip), vehicle: saline) was 99 % of control, the T/C (endpoint: median tumor weight change, dose: 6.25 mg/kg/injection, schedule: Q01DX001 (ip), vehicle: saline) was 77 % of control and the T/C (endpoint: median tumor weight change, dose: 12.5 mg/kg/injection, schedule: Q01DX001 (ip), vehicle: saline) was 77 % of control. The T/C [1] was 73 % of control.
For Cc1c(CNc2ccc(C(=O)NC(CC(=O)O)C(=O)O)cc2)ccc2nc(N)nc(N)c12 (stereo not given), the T/C (endpoint: median tumor weight (est.), dose: 3.12 mg/kg/injection, schedule: Q07DX005 (ip), vehicle: saline with Tween-80) was 28 % of control, the T/C (endpoint: median tumor weight (est.), dose: 3.13 mg/kg/injection, schedule: Q07DX005 (ip), vehicle: saline with Tween-80) was 26 % of control and the T/C [2] was 29 % of control.
In the case of O=C1c2cccc(NCCCNCCO)c2C(=O)c2cccc(NCCCNCCO)c21, the T/C (endpoint: median tumor weight change, dose: 6.25 mg/kg/injection, schedule: Q01DX001 (ip), vehicle: acid diluted with saline) is reported as 36 % of control, the T/C (endpoint: median tumor weight change, dose: 12.5 mg/kg/injection, schedule: Q01DX001 (ip), vehicle: acid diluted with saline) is reported as 47 % of control and the T/C (endpoint: median tumor weight change, dose: 25.0 mg/kg/injection, schedule: Q01DX001 (ip), vehicle: acid diluted with saline) is reported as 29 % of control. The T/C (endpoint: median tumor weight change, dose: 50.0 mg/kg/injection, schedule: Q01DX001 (ip), vehicle: acid diluted with saline) was 23 % of control and the T/C (endpoint: median tumor weight change, dose: 100.0 mg/kg/injection, schedule: Q01DX001 (ip), vehicle: acid diluted with saline) was 54 % of control.
In the case of OCCN1CCN(CC/C=C2/c3ccccc3Sc3ccc(C(F)(F)F)cc32)CC1, the T/C (endpoint: median tumor weight (est.), dose: 3.12 mg/kg/injection, schedule: Q07DX005 (ip), vehicle: saline) is reported as 70 % of control, the T/C (endpoint: median tumor weight (est.), dose: 6.25 mg/kg/injection, schedule: Q07DX005 (ip), vehicle: saline) is reported as 107 % of control and the T/C (endpoint: median tumor weight (est.), dose: 12.5 mg/kg/injection, schedule: Q07DX005 (ip), vehicle: saline) is reported as 120 % of control. The T/C (endpoint: median tumor weight (est.), dose: 25.0 mg/kg/injection, schedule: Q07DX005 (ip), vehicle: saline) was 101 % of control and the T/C (endpoint: median tumor weight (est.), dose: 50.0 mg/kg/injection, schedule: Q07DX005 (ip), vehicle: saline) was 81 % of control.
With CC(=O)C1(O)Cc2c(O)c3c(c(O)c2C(OC2CC(N)C(O)C(C)O2)C1)C(=O)c1ccccc1C3=O (stereo not given) the T/C (endpoint: median tumor weight (est.), dose: 0.1 mg/kg/injection, schedule: Q07DX005 (ip), vehicle: saline) was 81 % of control, the T/C (endpoint: median tumor weight (est.), dose: 0.2 mg/kg/injection, schedule: Q07DX005 (ip), vehicle: saline) was 55 % of control and the T/C (endpoint: median tumor weight (est.), dose: 0.4 mg/kg/injection, schedule: Q07DX005 (ip), vehicle: saline) was 48 % of control.
In the case of N[C@H](C(=O)O)[C@@H]1CC(Cl)=NO1, the T/C (endpoint: median tumor weight (est.), dose: 1.0 mg/kg/injection, schedule: Q07DX005 (ip), vehicle: saline) is reported as 167 % of control, the T/C (endpoint: median tumor weight (est.), dose: 2.0 mg/kg/injection, schedule: Q07DX005 (ip), vehicle: saline) is reported as 92 % of control and 100 % of control and 101 % of control and the T/C (endpoint: median tumor weight (est.), dose: 128.0 mg/kg/injection, schedule: Q07DX005 (ip), vehicle: saline) is reported as 13 % of control.
In the case of CN(C)C=O, the T/C (endpoint: median tumor weight (est.), dose: 100.0 mg/kg/injection, schedule: Q07DX005 (ip), vehicle: saline) is reported as 78 % of control, the T/C (endpoint: median tumor weight (est.), dose: 400.0 mg/kg/injection, schedule: Q07DX005 (ip), vehicle: saline) is reported as 105 % of control and the T/C (endpoint: median tumor weight (est.), dose: 800.0 mg/kg/injection, schedule: Q07DX005 (ip), vehicle: saline) is reported as 96 % of control.
Cc1ccc(N)c(N)c1 was tested, and the T/C (endpoint: median tumor weight change, dose: 125.0 mg/kg/injection, schedule: Q01DX001 (ip), vehicle: saline with Tween-80) was 65 % of control, the T/C (endpoint: median tumor weight change, dose: 250.0 mg/kg/injection, schedule: Q01DX001 (ip), vehicle: saline with Tween-80) was 48 % of control and the T/C (endpoint: median tumor weight change, dose: 500.0 mg/kg/injection, schedule: Q01DX001 (ip), vehicle: saline with Tween-80) was 75 % of control.
For CC1=C(/C=C/C(C)=C/C=C/C(C)=C/CO)C(C)(C)CCC1, the T/C (endpoint: median tumor weight (est.), dose: 8.0 mg/kg/injection, schedule: Q07DX005 (ip), vehicle: saline with Tween-80) was 195 % of control and the T/C (endpoint: median tumor weight (est.), dose: 32.0 mg/kg/injection, schedule: Q07DX005 (ip), vehicle: saline with Tween-80) was 118 % of control.
With N#Cc1nc(C#N)c(Sc2ccccc2)c(Sc2ccccc2)c1Sc1ccccc1 the T/C [2] was 165 % of control and the T/C (endpoint: median tumor weight (est.), dose: 12.5 mg/kg/injection, schedule: Q07DX005 (ip), vehicle: saline with Tween-80) was 113 % of control.
In the case of COc1ccc2cc1Oc1ccc(cc1)C[C@H]1c3cc(c(OC)cc3CCN1C)Oc1c(OC)c(OC)cc3c1[C@H](C2)N(C)CC3, the T/C (endpoint: median tumor weight (est.), dose: 25.0 mg/kg/injection, schedule: Q07DX005 (ip), vehicle: saline with Tween-80) is reported as 115 % of control, the T/C (endpoint: median tumor weight (est.), dose: 50.0 mg/kg/injection, schedule: Q07DX005 (ip), vehicle: saline with Tween-80) is reported as 102 % of control and the T/C (endpoint: median tumor weight (est.), dose: 100.0 mg/kg/injection, schedule: Q07DX005 (ip), vehicle: saline with Tween-80) is reported as 117 % of control. For the same molecule, the T/C (endpoint: median tumor weight (est.), dose: 200.0 mg/kg/injection, schedule: Q07DX005 (ip), vehicle: saline with Tween-80) was 64 % of control and the T/C (endpoint: median tumor weight (est.), dose: 400.0 mg/kg/injection, schedule: Q07DX005 (ip), vehicle: saline with Tween-80) was 37 % of control.
With CC/C(=C(/CC)c1ccc(O)cc1)c1ccc(O)cc1 the T/C (endpoint: median tumor weight (est.), dose: 12.5 mg/kg/injection, schedule: Q07DX005 (ip), vehicle: water) was 70 % of control, the T/C (endpoint: median tumor weight (est.), dose: 25.0 mg/kg/injection, schedule: Q07DX005 (ip), vehicle: water) was 66 % of control and the T/C (endpoint: median tumor weight (est.), dose: 50.0 mg/kg/injection, schedule: Q07DX005 (ip), vehicle: water) was 111 % of control. The T/C (endpoint: median tumor weight (est.), dose: 100.0 mg/kg/injection, schedule: Q07DX005 (ip), vehicle: water) was 101 % of control and the T/C (endpoint: median tumor weight (est.), dose: 200.0 mg/kg/injection, schedule: Q07DX005 (ip), vehicle: water) was 49 % of control.
For COC(C(=O)C(O)C(C)O)C1CC2C=C3C=C(OC4CC(OC5CC(O)C(OC)C(C)O5)C(OC(C)=O)C(C)O4)C(C)C(=O)C3=C(O)C2=C(O)C1OC1CC(OC2CC(OC3CC(C)(O)C(O)C(C)O3)C(O)C(C)O2)C(O)C(C)O1 (stereo not given), the T/C (endpoint: mean tumor weight, dose: 1.0 mg/kg/injection, schedule: Q07DX005 (ip), vehicle: saline) was 73 % of control, the T/C (endpoint: mean tumor weight, dose: 2.0 mg/kg/injection, schedule: Q07DX005 (ip), vehicle: saline) was 64 % of control and the T/C (endpoint: median tumor weight (est.), dose: 0.5 mg/kg/injection, schedule: Q07DX005 (ip), vehicle: saline with Tween-80) was 58 % of control. The T/C (endpoint: median tumor weight (est.), dose: 1.0 mg/kg/injection, schedule: Q07DX005 (ip), vehicle: saline with Tween-80) was 78 % of control and the T/C (endpoint: median tumor weight (est.), dose: 2.0 mg/kg/injection, schedule: Q07DX005 (ip), vehicle: saline with Tween-80) was 89 % of control.
For C[C@@]1(CO)[C@H](O)CC[C@@]2(C)[C@H]1CC[C@H]1C[C@@H]3C[C@@]12CC[C@@]3(O)COC(=O)CN, the T/C (endpoint: median tumor weight change, dose: 9.88 mg/kg/injection, schedule: Q01DX001 (ip), vehicle: Klucel (hydroxypropylcellulose) (HPC)) was 78 % of control, the T/C (endpoint: median tumor weight change, dose: 18.75 mg/kg/injection, schedule: Q01DX001 (ip), vehicle: Klucel (hydroxypropylcellulose) (HPC)) was 68 % of control and the T/C (endpoint: median tumor weight change, dose: 37.5 mg/kg/injection, schedule: Q01DX001 (ip), vehicle: Klucel (hydroxypropylcellulose) (HPC)) was 98 % of control. The T/C (endpoint: median tumor weight change, dose: 75.0 mg/kg/injection, schedule: Q01DX001 (ip), vehicle: Klucel (hydroxypropylcellulose) (HPC)) was 84 % of control, the T/C (endpoint: median tumor weight change, dose: 62.5 micrograms/kg/injection, schedule: Q01DX001 (ip), vehicle: saline + alcohol) was 170 % of control and the T/C (endpoint: median tumor weight change, dose: 125.0 micrograms/kg/injection, schedule: Q01DX001 (ip), vehicle: saline + alcohol) was 90 % of control. The T/C (endpoint: median tumor weight change, dose: 250.0 micrograms/kg/injection, schedule: Q01DX001 (ip), vehicle: saline + alcohol) was 115 % of control and the T/C (endpoint: median tumor weight change, dose: 1000.0 micrograms/kg/injection, schedule: Q01DX001 (ip), vehicle: saline + alcohol) was 106 % of control.
For O=[Te]=O, the T/C (endpoint: median tumor weight change, dose: 6.25 mg/kg/injection, schedule: Q01DX001 (ip), vehicle: suspension in saline) was 73 % of control, the T/C (endpoint: median tumor weight change, dose: 12.5 mg/kg/injection, schedule: Q01DX001 (ip), vehicle: suspension in saline) was 83 % of control and the T/C (endpoint: median tumor weight change, dose: 25.0 mg/kg/injection, schedule: Q01DX001 (ip), vehicle: suspension in saline) was 61 % of control. The T/C (endpoint: median tumor weight change, dose: 50.0 mg/kg/injection, schedule: Q01DX001 (ip), vehicle: suspension in saline) was 94 % of control and the T/C (endpoint: median tumor weight change, dose: 100.0 mg/kg/injection, schedule: Q01DX001 (ip), vehicle: suspension in saline) was 106 % of control.
For O=C1C=CC(=O)N1c1ccc(Cl)cc1, the T/C (endpoint: median tumor weight (est.), dose: 5.0 mg/kg/injection, schedule: Q07DX003 (ip), vehicle: Klucel (hydroxypropylcellulose) (HPC)) was 65 % of control and the T/C (endpoint: median tumor weight (est.), dose: 20.0 mg/kg/injection, schedule: Q07DX003 (ip), vehicle: Klucel (hydroxypropylcellulose) (HPC)) was 109 % of control.
For O=c1n(CC2CO2)c(=O)n(CC2CO2)n1CC1CO1 (stereo not given), the T/C (endpoint: median tumor weight change, dose: 62.5 mg/kg/injection, schedule: Q01DX001 (ip), vehicle: saline) was 29 % of control.
In the case of Cc1c2ccccc2cc2cccc[n+]12, the T/C (endpoint: median tumor weight change, dose: 20.0 mg/kg/injection, schedule: Q01DX001 (ip), vehicle: saline) is reported as 116 % of control, the T/C [1] is reported as 123 % of control and the T/C (endpoint: median tumor weight change, dose: 40.0 mg/kg/injection, schedule: Q01DX001 (ip), vehicle: saline) is reported as 119 % of control. The T/C (endpoint: median tumor weight change, dose: 50.0 mg/kg/injection, schedule: Q01DX001 (ip), vehicle: saline) was 59 % of control.
